Assay results as given in the NIST ThermoML archive (doi:10.1016/j.jct.2006.09.012).
Values joined by “and” are separate entries in the source; they are usually repeats but may differ in a detail not shown here. Equal entries are not always repeated.

Conditions: Gas, Buoyancy - hydrostatic balance with magnetic suspension - two sinkers

N#N [nitrogen]
Conditions | mass density
340.01 K, 11962 kPa | 114.845 kg/m3 and 114.844 kg/m3 and 114.842 kg/m3
340.01 K, 15961 kPa | 150.241 kg/m3 and 150.238 kg/m3 and 150.239 kg/m3
340.01 K, 15962 kPa | 150.242 kg/m3 and 150.24 kg/m3
340.01 K, 20072 kPa | 184.447 kg/m3 [middle of 5 runs]
340.01 K, 20073 kPa | 184.453 kg/m3
340.01 K, 24069 kPa | 215.463 kg/m3
340.01 K, 24070 kPa | 215.467 kg/m3 and 215.465 kg/m3 and 215.466 kg/m3
340.01 K, 28607 kPa | 247.989 kg/m3 and 247.99 kg/m3
340.01 K, 28608 kPa | 247.996 kg/m3 and 247.999 kg/m3 and 247.993 kg/m3
340.01 K, 33718 kPa | 281.379 kg/m3
340.01 K, 33719 kPa | 281.38 kg/m3 and 281.384 kg/m3
340.01 K, 33720 kPa | 281.389 kg/m3 and 281.386 kg/m3
359.99 K, 5385.3 kPa | 49.7747 kg/m3
359.99 K, 5385.4 kPa | 49.7738 kg/m3 and 49.7746 kg/m3
359.99 K, 5385.5 kPa | 49.7747 kg/m3 and 49.7744 kg/m3
359.99 K, 11539 kPa | 104.182 kg/m3
359.99 K, 23337 kPa | 197.246 kg/m3
360 K, 11538 kPa | 104.181 kg/m3 and 104.18 kg/m3
360 K, 11539 kPa | 104.182 kg/m3 and 104.181 kg/m3
360 K, 23336 kPa | 197.238 kg/m3 and 197.239 kg/m3 and 197.241 kg/m3
360 K, 23337 kPa | 197.243 kg/m3
379.99 K, 5685.7 kPa | 49.5887 kg/m3 [middle of 4 runs]
379.99 K, 5685.8 kPa | 49.589 kg/m3 and 49.5891 kg/m3
379.99 K, 12228 kPa | 103.776 kg/m3 and 103.778 kg/m3
380 K, 12228 kPa | 103.775 kg/m3 and 103.776 kg/m3
380 K, 24868 kPa | 196.492 kg/m3 and 196.493 kg/m3 and 196.491 kg/m3
380 K, 24869 kPa | 196.497 kg/m3 and 196.496 kg/m3 and 196.492 kg/m3
399.97 K, 499.5 kPa | 4.2016 kg/m3 and 4.2015 kg/m3 and 4.2014 kg/m3
399.97 K, 999 kPa | 8.3914 kg/m3 and 8.3913 kg/m3 and 8.3912 kg/m3
399.97 K, 1998 kPa | 16.7314 kg/m3 and 16.7313 kg/m3 and 16.7315 kg/m3
399.97 K, 3996 kPa | 33.2413 kg/m3 and 33.241 kg/m3 and 33.2411 kg/m3
399.97 K, 5994.1 kPa | 49.4948 kg/m3 and 49.4949 kg/m3 and 49.4947 kg/m3
399.99 K, 5983.6 kPa | 49.4072 kg/m3 and 49.4075 kg/m3
399.99 K, 5983.7 kPa | 49.4089 kg/m3 and 49.4079 kg/m3
399.99 K, 5983.8 kPa | 49.4087 kg/m3 and 49.4092 kg/m3
399.99 K, 12911 kPa | 103.383 kg/m3
399.99 K, 12912 kPa | 103.387 kg/m3
400 K, 12911 kPa | 103.385 kg/m3 and 103.384 kg/m3 and 103.383 kg/m3
400 K, 12912 kPa | 103.388 kg/m3
400 K, 26381 kPa | 195.763 kg/m3 and 195.766 kg/m3
400 K, 26382 kPa | 195.77 kg/m3
400 K, 26383 kPa | 195.774 kg/m3
419.99 K, 6278.6 kPa | 49.2274 kg/m3 [middle of 5 runs]
419.99 K, 13587 kPa | 103.001 kg/m3 and 103.002 kg/m3
420 K, 13587 kPa | 103 kg/m3 and 103.001 kg/m3 and 103.002 kg/m3
420 K, 27876 kPa | 195.057 kg/m3 and 195.058 kg/m3 and 195.06 kg/m3
420 K, 27877 kPa | 195.065 kg/m3 and 195.064 kg/m3
420 K, 27878 kPa | 195.07 kg/m3
439.98 K, 499.5 kPa | 3.8187 kg/m3 [middle of 5 runs]
439.98 K, 999 kPa | 7.6237 kg/m3 and 7.6236 kg/m3 and 7.6238 kg/m3
439.98 K, 1998 kPa | 15.1913 kg/m3 and 15.1914 kg/m3
439.98 K, 3995.9 kPa | 30.1496 kg/m3 [middle of 4 runs]
439.98 K, 5993.9 kPa | 44.8532 kg/m3 [middle of 4 runs]
439.99 K, 6571 kPa | 49.0492 kg/m3
439.99 K, 6571.1 kPa | 49.0504 kg/m3 and 49.0497 kg/m3 and 49.05 kg/m3
440 K, 14255 kPa | 102.622 kg/m3 [middle of 6 runs]
440 K, 29348 kPa | 194.34 kg/m3 and 194.342 kg/m3 and 194.344 kg/m3
440 K, 29349 kPa | 194.345 kg/m3 and 194.347 kg/m3 and 194.348 kg/m3
459.99 K, 6861.3 kPa | 48.8758 kg/m3 and 48.8757 kg/m3
460 K, 6861.3 kPa | 48.8757 kg/m3 and 48.8759 kg/m3
460 K, 6861.4 kPa | 48.8764 kg/m3
460 K, 14917 kPa | 102.251 kg/m3 [middle of 5 runs]
460 K, 14918 kPa | 102.253 kg/m3
460 K, 30809 kPa | 193.675 kg/m3
460 K, 30810 kPa | 193.681 kg/m3 and 193.677 kg/m3 and 193.678 kg/m3
460 K, 30811 kPa | 193.683 kg/m3
460 K, 30812 kPa | 193.69 kg/m3
479.99 K, 7148.6 kPa | 48.7024 kg/m3
479.99 K, 7148.7 kPa | 48.7027 kg/m3
480 K, 499.5 kPa | 3.4995 kg/m3 [middle of 5 runs]
480 K, 999 kPa | 6.9854 kg/m3 [middle of 5 runs]
480 K, 1998 kPa | 13.9143 kg/m3 [middle of 5 runs]
480 K, 3996 kPa | 27.6012 kg/m3 and 27.6015 kg/m3 and 27.6009 kg/m3
480 K, 5994 kPa | 41.0449 kg/m3 and 41.045 kg/m3
480 K, 5994.1 kPa | 41.0449 kg/m3 and 41.0443 kg/m3 and 41.045 kg/m3
480 K, 7148.6 kPa | 48.7016 kg/m3 and 48.7015 kg/m3
480 K, 7148.7 kPa | 48.7027 kg/m3
480 K, 15572 kPa | 101.884 kg/m3 [middle of 5 runs]
480 K, 15573 kPa | 101.886 kg/m3
480 K, 32254 kPa | 193.025 kg/m3
480 K, 32255 kPa | 193.027 kg/m3 and 193.029 kg/m3
480 K, 32256 kPa | 193.032 kg/m3 and 193.035 kg/m3
500 K, 7433.7 kPa | 48.5307 kg/m3 and 48.5313 kg/m3
500 K, 7433.8 kPa | 48.531 kg/m3 and 48.5323 kg/m3 and 48.5317 kg/m3
500 K, 7433.9 kPa | 48.5314 kg/m3
500 K, 16220 kPa | 101.517 kg/m3 and 101.518 kg/m3 and 101.519 kg/m3
500 K, 16221 kPa | 101.519 kg/m3 and 101.521 kg/m3
500 K, 33681 kPa | 192.377 kg/m3
500 K, 33682 kPa | 192.38 kg/m3 and 192.382 kg/m3
500 K, 33683 kPa | 192.384 kg/m3
500 K, 33684 kPa | 192.389 kg/m3
500 K, 33686 kPa | 192.396 kg/m3
